Laboratory results as given in patent US20250268903A1, “RXFP1 AGONISTS” (BRISTOL-MYERS SQUIBB COMPANY, priority 2021, published 2025).
pEC50: −log10 of the molar value.

Target: T1, human RXFP1 (Homo sapiens, UniProt Q9HBX9)
T1 construct: expressed in transfected cells
T1 sequence (Q9HBX9 1-757): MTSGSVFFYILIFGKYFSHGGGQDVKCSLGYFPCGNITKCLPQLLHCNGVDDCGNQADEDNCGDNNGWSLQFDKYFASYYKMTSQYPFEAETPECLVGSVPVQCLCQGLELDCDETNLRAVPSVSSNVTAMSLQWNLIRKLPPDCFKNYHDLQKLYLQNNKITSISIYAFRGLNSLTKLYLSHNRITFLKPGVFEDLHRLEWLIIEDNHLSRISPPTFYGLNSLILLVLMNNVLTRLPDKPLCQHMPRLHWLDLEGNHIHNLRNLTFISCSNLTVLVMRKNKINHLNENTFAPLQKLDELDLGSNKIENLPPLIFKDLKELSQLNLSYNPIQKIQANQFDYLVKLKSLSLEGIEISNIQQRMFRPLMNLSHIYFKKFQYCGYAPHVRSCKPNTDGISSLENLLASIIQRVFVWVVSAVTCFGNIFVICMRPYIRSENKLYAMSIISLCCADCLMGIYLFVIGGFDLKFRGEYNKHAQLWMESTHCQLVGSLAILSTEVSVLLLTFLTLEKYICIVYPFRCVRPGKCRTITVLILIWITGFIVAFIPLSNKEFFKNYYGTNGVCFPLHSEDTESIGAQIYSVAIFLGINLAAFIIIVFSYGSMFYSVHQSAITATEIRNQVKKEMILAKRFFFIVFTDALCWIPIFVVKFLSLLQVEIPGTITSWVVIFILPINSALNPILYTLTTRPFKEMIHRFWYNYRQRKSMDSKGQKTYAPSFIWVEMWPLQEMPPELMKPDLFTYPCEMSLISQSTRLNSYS
Assay: hRXFP1 HEK293 cAMP assay (HTRF)
Format: cell-based
Details: HEK293 cells stably expressing human RXFP1, 30 min at room temperature
How it was run: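 HEK293 cells stably expressing human RXFP1 were suspended in HBSS (Ca/Mg) with 20 mM HEPES, 0.05% BSA and 0.5 mM IBMX, then treated with compounds (0.010 nM–50 μM, 2% DMSO final) for 30 min at room temperature. Intracellular cAMP was measured by HTRF, and potency was derived from 4-parameter logistic fits.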

COc1ccc(/C=C/C(=O)N2CC(O)C2)cc1C(=O)N[C@H]1[C@@H](C(=O)Nc2ccc(F)c(C(F)(F)F)c2)[C@H]2CC[C@@H]1/C2=C\C1CC1 [Example 313, (1R,2S,3R,4R,7Z)-7-(cyclopropyl-methylidene)-N-[4-fluoro-3-(trifluoromethyl)phenyl]-3-{5-[(1E)-3-(3-hydroxyazetidin-1-yl)-3-oxoprop-1-en-1-yl]-2-methoxybenzamido} bicyclo[2.2.1]heptane-2-carboxamide]
pEC50: 7.48

COc1ccc([C@H]2C[C@H](O)C2)cc1C(=O)N[C@H]1[C@@H](C(=O)Nc2ccc(F)c(C(F)(F)F)c2)[C@H]2CC[C@@H]1/C2=C\C1CC1 [Example 277, (1R,2S,3R,4R,7Z)-7-(cyclopropylmethyl-idene)-N-[4-fluoro-3-(trifluoromethyl)phenyl]-3-{2-methoxy-5-[(1r,3r)-3-hydroxycyclobutyl]benzamido} bicyclo [2.2.1]heptane-2-carboxamide]
pEC50: 8.14

COc1ccc(CCCO)cc1C(=O)NC1C2CCC(/C2=C/C2CCCOC2)[C@@H]1C(=O)Nc1ccc(F)c(C(F)(F)F)c1 (single isomer, unassigned) [Example 170, (7Z)-N-[4-fluoro-3-(trifluoromethyl)phe-nyl]-3-[5-(3-hydroxypropyl)-2-methoxybenzamido]-7-[(oxan-3-yl)methylidene]bicy-clo[2.2.1]heptane-2-carboxamide]
pEC50: 7.29

COc1ccc(C[C@H]2C[C@H](O)C2)cc1C(=O)N[C@H]1[C@@H](C(=O)Nc2ccc(F)c(C(F)(F)F)c2)[C@H]2CC[C@@H]1/C2=C\C(F)(F)F [Example 279, (1R,2S,3R,4R,7Z)-N-[4-fluoro-3-(trifluoromethyl)phenyl]-3-(2-methoxy-5-{[(1r,3s)-3-hydroxycyclobutyl]methyl}benzamido)-7-(2,2,2-trifluoroethylidene) bicyclo[2.2.1]heptane-2-carboxamide]
pEC50: 7.74

COc1ccc(CCCO)cc1C(=O)NC1C2CCC(/C2=C/C2CCCOC2)[C@@H]1C(=O)Nc1ccc(F)c(C(F)(F)F)c1 (single isomer, unassigned) [Example 171, (7Z)-N-[4-fluoro-3-(trifluoromethyl)phe-nyl]-3-[5-(3-hydroxypropyl)-2-methoxybenzamido]-7-[(oxan-3-yl)methylidene]bicy-clo[2.2.1]heptane-2-carboxamide]
pEC50: 6.40

COc1ccc(C2CC2C(=O)O)cc1C(=O)N[C@@H]1C2CCC(/C2=C/C(F)(F)F)[C@@H]1C(=O)Nc1ccc(F)c(C(F)(F)F)c1 (single isomer, unassigned) [Example 63]
pEC50: 5.35

COc1ccc(C(C)CCO)cc1C(=O)N[C@@H]1C2CCC(/C2=C/C(F)(F)F)[C@@H]1C(=O)Nc1ccc(F)c(C(F)(F)F)c1 (single isomer, unassigned) [Example 60]
pEC50: 6.19

COc1ccc(C2CC(C(C)(C)O)C2)cc1C(=O)N[C@H]1[C@@H](C(=O)Nc2ccc(F)c(C(F)(F)F)c2)[C@H]2CC[C@@H]1/C2=C\C1CCCC1 (stereo partly drawn) [Example 363, (1R,2S,3R,4R,Z)-7-(cyclopentyl-methylene)-N-(4-fluoro-3-(trifluoromethyl)phenyl)-3-(5-(3-(2-hydroxypropan-2-yl)cyclobutyl)-2-methoxybenzamido) bicyclo[2.2.1] heptane-2-carboxamide]
pEC50: 8.41

COc1ccc(C#CCCCO)cc1C(=O)N[C@@H]1C2CCC(/C2=C/C(F)(F)F)[C@@H]1C(=O)Nc1ccc(F)c(C(F)(F)F)c1 (stereo partly drawn) [Example 77, (2S,3R,7Z)-N-[4-fluoro-3-(trifluoromethyl)phe-nyl]-3-[5-(5-hydroxypent-1-yn-1-yl)-2-methoxybenzamido]-7-(2,2,2-trifluoroethylidene)bi-cyclo[2.2.1]heptane-2-carboxamide]
pEC50: 7.21

COc1ccc(C2CCCC(C(=O)O)C2)cc1C(=O)NC1C2CCC(/C2=C/C(F)(F)F)[C@@H]1C(=O)Nc1ccc(F)c(C(F)(F)F)c1 (stereo partly drawn) [Example 144, 3-(3-{[(2R,3S,7Z)-3-{[4-fluoro-3-(trifluoromethyl)phe-nyl]carbamoyl}-7-(2,2,2-trifluoroethylidene)bi-cyclo[2.2.1]heptan-2-yl]carbamoyl}-4-methoxyphenyl)cyclo-hexane-1-carboxylic acid]
pEC50: 6.87

COc1ccc(CC[C@@H](C)O)cc1C(=O)N[C@@H]1C2CCC(/C2=C/C(F)(F)F)[C@@H]1C(=O)Nc1ccc(F)c(C(F)(F)F)c1 (stereo partly drawn) [Example 93, (2S,3R,7Z)-N-[4-fluoro-3-(trifluoromethyl)phe-nyl]-3-{5-[(3R)-3-hydroxybutyl]-2-methoxybenzamido}-7-(2,2,2-trifluoroethylidene)bi-cyclo[2.2.1]heptane-2-carboxamide]
pEC50: 6.61

COc1ccc(C2CC2CO)cc1C(=O)N[C@@H]1C2CCC(/C2=C/C(F)(F)F)[C@@H]1C(=O)Nc1ccc(F)c(C(F)(F)F)c1 (single isomer, unassigned) [Example 65]
pEC50: 6.60

COc1ccc(S(=O)(=O)N2CCN3C(=O)OCC3C2)cc1C(=O)N[C@H]1[C@@H](C(=O)Nc2ccc(F)c(C(F)(F)F)c2)[C@H]2CC[C@@H]1/C2=C\C(F)(F)F (stereo partly drawn) [Example 220, (1R,2S,3R,4R,7Z)-N-[4-fluoro-3-(trifluoromethyl)phenyl]-3-[2-methoxy-5-({3-oxo-hexahydro-1H-[1,3]oxazolo[3,4-a]piperazin-7-yl}sulfonyl)benzamido]-7-(2,2,2-trifluoroethylidene) bicyclo[2.2.1] heptane-2-carboxamide]
pEC50: 6.34

COc1ccc(C2CC3CC(O)CC32)cc1C(=O)N[C@H]1[C@@H](C(=O)Nc2ccc(F)c(C(F)(F)F)c2)[C@H]2CC[C@@H]1/C2=C\C1CC1 (single isomer, unassigned) [Example 341]
pEC50: 6.90

CCCc1ccc(OCCO)c(C(=O)N[C@@H]2C3CCC(/C3=C/C(F)(F)F)[C@@H]2C(=O)Nc2ccc(F)c(C(F)(F)F)c2)c1 (stereo partly drawn) [Example 108, (2S,3R,7Z)-N-[4-fluoro-3-(trifluoromethyl)phe-nyl]-3-[2-(2-hydroxyethoxy)-5-propylbenzamido]-7-(2,2,2-trifluoroethylidene)bi-cyclo[2.2.1]heptane-2-carboxamide]
pEC50: 5.64

COc1ccc(COCC2COC2)cc1C(=O)N[C@H]1[C@@H](C(=O)Nc2ccc(F)c(C(F)(F)F)c2)[C@H]2CC[C@@H]1/C2=C\C(F)(F)F [Example 284, (1R,2S,3R,4R,7Z)-N-[4-fluoro-3-(trifluoromethyl)phenyl]-3-(2-methoxy-5-{[(oxetan-3-yl)methoxy]methyl}benzamido)-7-(2,2,2-trifluoroethylidene) bicyclo[2.2.1] heptane-2-carboxamide]
pEC50: 6.79

COc1ccc(S(=O)(=O)N2CCN(CCCO)CC2)cc1C(=O)N[C@H]1[C@@H](C(=O)Nc2ccc(F)c(C(F)(F)F)c2)[C@H]2CC[C@@H]1/C2=C\C(F)(F)F [Example 211, (1R,2S,3R,4R,7Z)-N-[4-fluoro-3 (trifluoromethyl)phenyl]-3-(5-{[4-(3-hydroxypropyl)piperazin-1-yl]sulfonyl}-2-methoxybenzamido)-7-(2,2,2-trifluoroethylidene) bicyclo[2.2.1] heptane-2-carboxamide]
pEC50: 6.26

COc1ccc(C2CC2C(=O)N2CCC(O)CC2)cc1C(=O)N[C@H]1[C@@H](C(=O)Nc2ccc(F)c(C(F)(F)F)c2)[C@H]2CC[C@@H]1/C2=C\C(F)(F)F (single isomer, unassigned) [Example 325]
pEC50: 5.53

COc1ccc(CCC(C)(C)O)cc1C(=O)NC1C2CCC(/C2=C/C2CCOCC2)[C@@H]1C(=O)Nc1ccc(F)c(C(F)(F)F)c1 (stereo partly shown) [Example 166, (7Z)-N-[4-fluoro-3-(trifluoromethyl)phe-nyl]-3-[5-(3-hydroxy-3-methylbutyl)-2-methoxybenzamido]-7-[(oxan-4-yl)methylidene]bicy-clo[2.2.1]heptane-2-carboxamide]
pEC50: 6.89

COc1ccc(CCC(C)(C)O)cc1C(=O)NC1C2CCC(/C2=C/C2CC(F)(F)C2)[C@@H]1C(=O)Nc1ccc(F)c(C(F)(F)F)c1 (stereo partly drawn) [Example 160, (2S,3R,7Z)-7-[(3,3-difluorocyclobutyl)methylidene]-N-[4-fluoro-3-(trifluoromethyl)phe-nyl]-3-[5-(3-hydroxy-3-methylbutyl)-2-methoxybenzamido] bicyclo[2.2.1]heptane-2-carboxamide]
pEC50: 7.29

COc1ccc(C(F)(F)F)cc1C(=O)N[C@@H]1C2CCC(C2=C(C)C)[C@@H]1C(=O)Nc1ccc(F)c(C(F)(F)F)c1 (stereo partly shown) [Example 359]
pEC50: 5.82

COc1ccc(COc2cccc(C(=O)O)c2)cc1C(=O)N[C@H]1[C@@H](C(=O)Nc2ccc(F)c(C(F)(F)F)c2)[C@H]2CC[C@@H]1/C2=C\C1CC1 [Example 12, 3-((3-(((1R,2R,3S,4R,Z)-7-(cyclopropylmethylene)-3-((4-fluoro-3-(trifluoromethyl)phenyl)carbamoyl)bicyclo[2.2.1]heptan-2-yl)carbamoyl)-4-methoxybenzyl)oxy)benzoic acid]
pEC50: 8.00
